In one assay the test system is INS1. The experiment in a line: INS-1E survival protection against cytokine death – cell-based, luminescence, retest, dose response (AID 449756).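 Also: cell death triggered by IL-1 beta plus TNF-alpha plus IFN-gamma mixture; protective hits raise ATP signal compared with cytokine alone wells.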 It is filed as functional.
Assay [1] has as its system Vero. The experiment in a line: cells. It is filed as functional. The following applies: Chlorocebus sabaeus.
A further assay deals with Melanocortin receptor 4 (Homo sapiens, UniProt P32245). It is filed as functional, cell-based.
Chain of Melanocortin receptor 4 (P32245 whole entry): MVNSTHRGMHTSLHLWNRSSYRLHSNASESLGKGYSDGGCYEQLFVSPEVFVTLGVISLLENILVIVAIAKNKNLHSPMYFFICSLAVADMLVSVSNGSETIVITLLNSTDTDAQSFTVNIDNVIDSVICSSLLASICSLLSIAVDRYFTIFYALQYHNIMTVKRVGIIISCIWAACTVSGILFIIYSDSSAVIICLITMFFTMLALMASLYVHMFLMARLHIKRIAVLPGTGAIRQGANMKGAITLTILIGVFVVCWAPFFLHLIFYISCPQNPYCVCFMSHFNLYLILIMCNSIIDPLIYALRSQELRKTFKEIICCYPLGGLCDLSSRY
Assay [2] concerns Vero. The experiment in a line: viability of Vero cells under compound – cytotoxicity control for flavivirus capping enzyme inhibitors (AID 588742). The following applies: Chlorocebus sabaeus. It is filed as functional.
The target in assay [3] is T1, Polyadenylate-binding protein 1 (Homo sapiens, UniProt P11940). The experiment in a line: MLLE binding blockers, Cy5 peptide tracer – biochemical, fluorescence polarization, Cy5-PAM2 peptide, secondary, miRNA deadenylation inhibitor project, dose response (AID 602260). The following applies: read-out: IC50_Mean. It is filed as functional.
T1 sequence (P11940 whole entry, the tested form may be a part): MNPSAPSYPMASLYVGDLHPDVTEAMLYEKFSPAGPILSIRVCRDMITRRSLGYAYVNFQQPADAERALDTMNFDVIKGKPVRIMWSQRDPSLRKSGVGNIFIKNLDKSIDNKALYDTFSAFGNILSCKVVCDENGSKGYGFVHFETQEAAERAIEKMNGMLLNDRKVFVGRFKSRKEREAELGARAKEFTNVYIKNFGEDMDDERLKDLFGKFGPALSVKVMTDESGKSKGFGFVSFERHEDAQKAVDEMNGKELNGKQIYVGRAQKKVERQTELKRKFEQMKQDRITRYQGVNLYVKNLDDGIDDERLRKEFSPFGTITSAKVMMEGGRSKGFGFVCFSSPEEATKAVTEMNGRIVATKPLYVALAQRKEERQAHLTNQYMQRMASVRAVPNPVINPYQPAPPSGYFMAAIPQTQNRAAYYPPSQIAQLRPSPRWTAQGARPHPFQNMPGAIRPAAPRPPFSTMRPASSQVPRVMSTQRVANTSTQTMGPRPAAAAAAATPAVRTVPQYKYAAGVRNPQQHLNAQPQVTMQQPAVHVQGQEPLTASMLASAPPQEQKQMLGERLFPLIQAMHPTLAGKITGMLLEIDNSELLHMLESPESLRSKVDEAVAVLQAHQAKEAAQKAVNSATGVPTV
Assay [4] has as its target T1, Polyadenylate-binding protein 1. The experiment in a line: MLLE domain peptide-binding blockers, IC50 – biochemical, fluorescence polarization, FITC-PAM2 peptide, dose response (AID 602259). The assay is classed as functional. As to conditions: read-out: IC50_Mean.
The target of assay [5] is T2, Histone-lysine N-methyltransferase NSD2 (Homo sapiens, UniProt O96028).
T2 sequence (O96028 whole entry): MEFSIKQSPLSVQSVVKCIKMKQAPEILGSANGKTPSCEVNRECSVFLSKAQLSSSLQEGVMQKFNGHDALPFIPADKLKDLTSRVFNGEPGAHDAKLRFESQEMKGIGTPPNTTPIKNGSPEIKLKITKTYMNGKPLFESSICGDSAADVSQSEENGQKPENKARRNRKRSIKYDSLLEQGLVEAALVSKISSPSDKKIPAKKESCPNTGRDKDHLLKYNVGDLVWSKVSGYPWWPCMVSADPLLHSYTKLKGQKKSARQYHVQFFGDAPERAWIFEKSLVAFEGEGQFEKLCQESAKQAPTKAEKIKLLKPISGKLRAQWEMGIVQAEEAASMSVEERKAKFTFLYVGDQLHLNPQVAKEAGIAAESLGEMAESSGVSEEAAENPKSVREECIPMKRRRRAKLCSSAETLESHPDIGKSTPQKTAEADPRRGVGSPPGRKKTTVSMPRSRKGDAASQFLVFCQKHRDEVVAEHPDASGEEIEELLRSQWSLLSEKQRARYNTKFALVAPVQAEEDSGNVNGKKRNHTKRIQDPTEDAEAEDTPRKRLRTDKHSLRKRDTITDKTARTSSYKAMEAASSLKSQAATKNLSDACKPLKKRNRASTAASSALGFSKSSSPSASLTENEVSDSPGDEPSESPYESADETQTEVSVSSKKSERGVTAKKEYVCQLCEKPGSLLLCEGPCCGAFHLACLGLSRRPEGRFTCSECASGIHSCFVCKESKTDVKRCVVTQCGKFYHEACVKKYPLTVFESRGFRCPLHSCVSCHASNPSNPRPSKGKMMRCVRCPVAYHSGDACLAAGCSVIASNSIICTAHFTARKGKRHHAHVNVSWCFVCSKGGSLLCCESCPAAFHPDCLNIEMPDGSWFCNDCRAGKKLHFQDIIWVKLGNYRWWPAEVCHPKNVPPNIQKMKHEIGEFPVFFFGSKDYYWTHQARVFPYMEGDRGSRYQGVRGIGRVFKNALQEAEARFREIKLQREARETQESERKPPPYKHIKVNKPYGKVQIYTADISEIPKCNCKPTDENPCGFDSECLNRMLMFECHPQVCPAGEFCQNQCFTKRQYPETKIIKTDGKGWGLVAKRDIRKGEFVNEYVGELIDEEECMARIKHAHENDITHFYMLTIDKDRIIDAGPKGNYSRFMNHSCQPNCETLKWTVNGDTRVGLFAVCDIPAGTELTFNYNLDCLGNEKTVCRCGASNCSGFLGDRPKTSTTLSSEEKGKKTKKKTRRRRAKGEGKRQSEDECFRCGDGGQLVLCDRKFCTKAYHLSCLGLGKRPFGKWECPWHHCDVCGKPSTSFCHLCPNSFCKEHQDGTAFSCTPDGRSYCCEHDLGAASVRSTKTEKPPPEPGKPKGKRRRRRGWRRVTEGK
The assay is classed as biochemical.

The target of assay [6] is T3, DNA repair protein RAD52 homolog (Homo sapiens, UniProt P43351).
T3 sequence (P43351 whole entry): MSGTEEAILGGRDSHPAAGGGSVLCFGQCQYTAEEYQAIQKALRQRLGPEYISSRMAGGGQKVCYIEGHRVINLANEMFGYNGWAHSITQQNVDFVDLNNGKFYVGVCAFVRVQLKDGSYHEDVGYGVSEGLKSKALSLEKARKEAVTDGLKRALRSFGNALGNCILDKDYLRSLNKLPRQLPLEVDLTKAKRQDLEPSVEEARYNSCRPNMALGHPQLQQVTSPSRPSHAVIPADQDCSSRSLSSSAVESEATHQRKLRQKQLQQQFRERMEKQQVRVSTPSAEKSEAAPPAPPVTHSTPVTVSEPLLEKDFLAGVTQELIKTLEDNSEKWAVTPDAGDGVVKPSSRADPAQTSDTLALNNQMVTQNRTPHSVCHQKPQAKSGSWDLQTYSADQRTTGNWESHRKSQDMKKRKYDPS
The assay is classed as functional, biochemical.

Another assay has as its target T4, Caspase-6 (Homo sapiens, UniProt P55212).
T4 sequence (P55212 whole entry): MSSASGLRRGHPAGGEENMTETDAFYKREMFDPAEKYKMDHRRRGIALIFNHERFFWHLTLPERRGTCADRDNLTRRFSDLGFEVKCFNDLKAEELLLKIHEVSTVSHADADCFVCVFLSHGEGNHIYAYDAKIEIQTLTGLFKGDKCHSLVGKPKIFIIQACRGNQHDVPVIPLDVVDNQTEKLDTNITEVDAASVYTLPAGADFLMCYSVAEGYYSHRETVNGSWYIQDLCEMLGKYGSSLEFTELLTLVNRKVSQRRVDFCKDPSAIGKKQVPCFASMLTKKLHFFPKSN
Kind of assay: inhibition of CASP6 peptide cleavage – biochemical, VEID-R110 fluorescence, cherry-pick, dose response (AID 720632).

A further assay deals with Caspase-9 (Homo sapiens, UniProt P55211). The experiment in a line: inhibitors of purified CASP9 protease – biochemical, fluorescence, plate reader, cherry-picked samples, selectivity assay for caspase-6 inhibitor project, dose response (AID 743293).
Chain of Caspase-9 (P55211 1-315 limits assumed): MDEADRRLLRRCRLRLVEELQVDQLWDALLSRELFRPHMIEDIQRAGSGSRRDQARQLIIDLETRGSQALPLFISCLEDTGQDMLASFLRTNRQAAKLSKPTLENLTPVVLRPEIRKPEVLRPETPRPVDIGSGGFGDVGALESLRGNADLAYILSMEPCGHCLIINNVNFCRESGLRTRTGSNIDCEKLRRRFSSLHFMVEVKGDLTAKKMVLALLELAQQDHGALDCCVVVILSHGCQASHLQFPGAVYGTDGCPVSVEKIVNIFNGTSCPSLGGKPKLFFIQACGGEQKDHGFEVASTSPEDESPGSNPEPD
Chain of Caspase-9 (P55211 331-416 limits assumed): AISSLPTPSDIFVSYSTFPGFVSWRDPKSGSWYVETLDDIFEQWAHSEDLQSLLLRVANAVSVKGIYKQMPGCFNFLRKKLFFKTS
The next assay has as its target Caspase-7 (Homo sapiens, UniProt P55210). Kind of assay: caspase-7 enzyme inhibition, selectivity check – biochemical, DEVD-R110 fluorescence, cherry-pick, selectivity assay for caspase-6 inhibitor project, dose response (AID 743295). The assay is classed as functional.
A further assay concerns the target SUMO-activating enzyme (Homo sapiens, UniProt Q9UBT2). The experiment in a line: blockers of SAE1/SAE2–UBC9 SUMO transfer – biochemical, HTRF, uHTS, primary screen (AID 2006). The assay is classed as protein-complex assay.

The source made the active and inactive calls.
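For EC50 in this document: Cell-based assay with luminescence read-out, confirmatory dose-response testing for agonist activity of biased ligands at MC4R; human U2OS cells with tagged receptor and beta-arrestin; potency of agonists that increase receptor coupling to beta-arrestin.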

Chain of Caspase-7 (P55210 24-198 limits assumed): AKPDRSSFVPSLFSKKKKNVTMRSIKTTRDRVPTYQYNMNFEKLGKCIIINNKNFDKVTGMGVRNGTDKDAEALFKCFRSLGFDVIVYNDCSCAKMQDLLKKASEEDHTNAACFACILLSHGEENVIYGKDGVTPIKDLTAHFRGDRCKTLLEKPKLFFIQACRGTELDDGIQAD
Chain of Caspase-7 (P55210 207-303 limits assumed): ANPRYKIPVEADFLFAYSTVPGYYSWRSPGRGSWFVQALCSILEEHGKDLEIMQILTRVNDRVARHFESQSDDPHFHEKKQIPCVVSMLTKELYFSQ
Chain of SUMO-activating enzyme (Q9UBE0 whole entry): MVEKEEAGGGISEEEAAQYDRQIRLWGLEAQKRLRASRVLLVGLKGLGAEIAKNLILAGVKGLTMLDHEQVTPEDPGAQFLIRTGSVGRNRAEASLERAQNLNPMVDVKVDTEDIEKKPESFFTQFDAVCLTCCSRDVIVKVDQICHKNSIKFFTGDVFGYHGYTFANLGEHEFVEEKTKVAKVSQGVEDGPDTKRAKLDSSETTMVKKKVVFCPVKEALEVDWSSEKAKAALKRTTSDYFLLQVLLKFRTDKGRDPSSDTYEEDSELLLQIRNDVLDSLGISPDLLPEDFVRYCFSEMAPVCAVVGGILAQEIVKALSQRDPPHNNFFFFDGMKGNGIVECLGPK
Chain of SUMO-activating enzyme (Q9UBT2 whole entry): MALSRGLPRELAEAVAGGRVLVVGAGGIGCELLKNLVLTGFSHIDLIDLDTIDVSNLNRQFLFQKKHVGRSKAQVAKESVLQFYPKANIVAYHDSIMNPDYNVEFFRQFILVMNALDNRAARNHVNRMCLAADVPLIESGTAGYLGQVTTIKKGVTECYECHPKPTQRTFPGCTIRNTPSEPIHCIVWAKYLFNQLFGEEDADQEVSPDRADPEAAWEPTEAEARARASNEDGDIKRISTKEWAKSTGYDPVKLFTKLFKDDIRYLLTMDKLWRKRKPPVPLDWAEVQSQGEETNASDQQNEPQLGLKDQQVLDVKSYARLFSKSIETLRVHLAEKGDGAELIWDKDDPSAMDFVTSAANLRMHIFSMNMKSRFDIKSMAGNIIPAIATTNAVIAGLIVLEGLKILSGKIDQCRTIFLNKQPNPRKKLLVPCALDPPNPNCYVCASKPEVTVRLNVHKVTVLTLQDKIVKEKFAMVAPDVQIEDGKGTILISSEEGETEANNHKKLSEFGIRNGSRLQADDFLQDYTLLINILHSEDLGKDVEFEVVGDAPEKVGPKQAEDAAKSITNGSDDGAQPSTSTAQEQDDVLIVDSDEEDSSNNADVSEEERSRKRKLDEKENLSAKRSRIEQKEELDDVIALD

Take `CCCCCCCCCCOC(=O)Cn1c(COc2ccc(OC)cc2)[n+](C)c2ccccc21`: the AC50 – broadly, the concentration giving half of the maximal activity seen – in the assay on INS1 (Rattus norvegicus, INS1) was 3.65 µM (active); in the assay on INS1 (ins1), 3.47 µM (active). Further, the half-maximal cytotoxic concentration (CC50) (usually the concentration at which the toxic effect on the cells reaches its halfway point) in the assay with Vero [1] was > 25 µM (active). On Melanocortin receptor 4, the EC50 (in general, the concentration that produces a half-maximal response) was > 89.2 µM (inactive).
For `COC1=C(c2ccccc2)C(=O)c2ccccc2C1=O`, the 50% cytotoxic concentration (CC50) in the assay on Vero [2] is 17.8 µM (active). The IC50 in assay [3] and in assay [4] was > 66 µM (inactive) in each case. Moreover, the AC50 in assay [5] was > 20 µM (inactive).
For `COc1cc2c(cc1OC)-c1c(OC)c(OC)cc3c1[C@H](C2)N(C)CC3`, the concentration at half-maximal activity (AC50) in assay [6] is 2.86 µM (active); on Caspase-6, 0.926 µM (active); at Caspase-9, 39.9 µM (active); on Caspase-7, 1.77 µM (active).
Turning to `O=C1C(Cl)=C(N2CCC(C(=O)O)CC2)C(=O)c2ccccc21`, on SUMO-activating enzyme, the IC50 was 24 µM (active). The AC50 in [5] was 1.46 µM (active).

The values are drawn from ChEMBL document CHEMBL1201862, “PubChem BioAssay data set” (2004).
